Test: In vitro elution testing of drug-loaded collars (light absorption of solution at 242 nm)
Assay type: physicochemical
Conditions: dried collar loaded from aqueous solution, then immersed in water
Protocol: FIG. 3 is a graph of radiation absorption (at 242 nm) versus time to measure the elution of dexamethasone acetate.
* denotes the use of an approximation during the calculation of values. […] The soaked collars were then dried for three hours and the delivered for elution testing. Elution testing was done by in vitro testing of the light absorption of a solution into which the collars were placed. The absorption at 242 nm was measured (a wavelength at which dexamethasone acetate strongly absorbs) and the release of the drug noted by increasing levels of absorbance, as shown in FIG. 3. […] Pore size would be estimated by taking the largest linear dimensions within each of the open areas and using that linear value as the largest dimension for that pore.
The rate of release from the collars is intended to be highly tailored to the specific ultimate use intended for the catheter or lead. The leads which may be used include traditional leads such as cardiac leads, but may also include other leads such as leads to organs that produce enzymes and hormones (as in the electrically stimulated treatment for Parkinsonism to accelerate the natural production of L-dopa), in stimulating breathing (in the prevention of SIDS or control of sleep apnea), neurological leads, hearing related leads, tinitus suppression leads, and the like. […]

removal of drug from the pores on immersion: removed from the pores over time
Compound: CC(=O)OCC(=O)[C@@]1(O)[C@H](C)C[C@H]2[C@@H]3CCC4=CC(=O)C=C[C@]4(C)[C@@]3(F)[C@@H](O)C[C@@]21C [dextramethasone acetate, dexamethasone acetate]
